Blank lines part the entries; values can stand above or below the compound they belong to. The source made the active and inactive calls. The calls are words filed in the database; no cut-off is given here.
Columns and labels:
[1] = biological target: T1, Sterol O-acyltransferase 1 (Homo sapiens) (UniProt P35610); assay: (§1) Inhibition of human ACAT1 expressed in Hi5 cells; settings: BTI-TN-5B1-4
T1 sequence (whole entry): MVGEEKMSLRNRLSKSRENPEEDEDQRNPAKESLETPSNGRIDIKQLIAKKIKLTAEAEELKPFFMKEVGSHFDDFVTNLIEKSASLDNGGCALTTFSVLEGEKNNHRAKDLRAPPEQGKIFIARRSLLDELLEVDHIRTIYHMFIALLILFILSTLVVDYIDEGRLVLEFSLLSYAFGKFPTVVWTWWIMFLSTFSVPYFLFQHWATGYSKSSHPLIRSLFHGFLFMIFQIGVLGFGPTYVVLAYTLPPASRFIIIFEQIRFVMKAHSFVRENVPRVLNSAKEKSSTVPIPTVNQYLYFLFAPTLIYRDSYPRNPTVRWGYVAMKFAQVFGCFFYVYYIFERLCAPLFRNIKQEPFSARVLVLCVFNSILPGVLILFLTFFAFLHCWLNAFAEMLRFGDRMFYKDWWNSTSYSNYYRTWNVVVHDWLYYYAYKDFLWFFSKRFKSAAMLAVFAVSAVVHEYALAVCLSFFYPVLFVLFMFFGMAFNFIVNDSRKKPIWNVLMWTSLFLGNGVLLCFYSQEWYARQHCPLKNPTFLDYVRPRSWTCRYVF

[2] = biological target: T2, Sterol O-acyltransferase 2 (Homo sapiens, UniProt O75908); assay: Inhibition of human ACAT2 expressed in Hi5 cells; set-up: species or system BTI-TN-5B1-4
T2 sequence (O75908 whole entry): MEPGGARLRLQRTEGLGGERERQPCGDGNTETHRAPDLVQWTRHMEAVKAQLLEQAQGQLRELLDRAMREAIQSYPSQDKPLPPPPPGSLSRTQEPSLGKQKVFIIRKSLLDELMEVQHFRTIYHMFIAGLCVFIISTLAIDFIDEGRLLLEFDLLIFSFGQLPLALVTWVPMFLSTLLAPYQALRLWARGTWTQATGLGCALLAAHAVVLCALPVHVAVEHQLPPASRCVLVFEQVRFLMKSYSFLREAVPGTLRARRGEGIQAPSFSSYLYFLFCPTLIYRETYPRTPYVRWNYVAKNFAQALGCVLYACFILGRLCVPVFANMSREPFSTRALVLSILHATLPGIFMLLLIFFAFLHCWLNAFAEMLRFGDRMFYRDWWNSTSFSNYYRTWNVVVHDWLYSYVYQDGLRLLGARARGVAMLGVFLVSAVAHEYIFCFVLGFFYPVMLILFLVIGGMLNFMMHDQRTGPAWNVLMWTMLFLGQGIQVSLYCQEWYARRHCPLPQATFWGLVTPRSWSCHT

Plasma = assay: Antioxidant activity against human plasma LDL oxidation by TBARS assay; type: functional, cell-free
[3] = biological target: T3, Sterol O-acyltransferase 1 (Homo sapiens, UniProt P35610); assay: as §1; set-up: species or system BTI-TN-5B1-4
T3 sequence (P35610 whole entry): T1 sequence (whole entry)

RAW [4] = assay: Inhibition of LPS-induced NO production in mouse RAW 264.7 cells after 18 hrs; type: functional, cell-based
RAW [5] = assay: Inhibition of LPS-induced iNOS protein expression in mouse RAW 264.7 cells at 5 uM; type: functional, cell-based
RAW [6] = assay: Inhibition of LPS-induced iNOS protein expression in mouse RAW 264.7 cells at 20 uM; type: functional, cell-based
RAW [7] = assay: Inhibition of LPS-induced iNOS protein expression in mouse RAW 264.7 cells at 10 uM; type: functional, cell-based
RAW [8] = assay: Effect on cell viability in mouse RAW 264.7 cells at 80 uM by MTT method; type: functional, cell-based
RAW [9] = assay: Inhibition of LPS-induced iNOS protein expression in mouse RAW 264.7 cells at 50 uM; type: functional, cell-based
RAW [10] = assay: Effect on cell viability in mouse RAW 264.7 cells at 50 uM by MTT method; type: functional, cell-based
RAW [11] = assay: Inhibition of LPS-induced NO production in mouse RAW 264.7 cells at 50 uM after 18 hrs; type: functional, cell-based

Activity [1]: inactive | IC50 [2]: 77.6 µM
SMILES: CC1(C)C=Cc2c(cc3oc(-c4ccc(O)cc4O)cc(=O)c3c2O)O1

IC50 [2]: 19.2 µM
SMILES: C=CC(C)(C)c1c(O)cc(O)c2c(=O)c3c(CC=C(C)C)c(OC)c(O)cc3oc12 [CUDRAXANTHONE C]
Activity (Plasma): inactive

IC50 [3]: 40 µM | IC50 [2]: 28.8 µM
SMILES: C=CC(C)(C)c1c(O)cc(O)c2c(=O)c3cc(O)c4c(c3oc12)C=CC(C)(C)O4

IC50 [2]: 75.2 µM
SMILES: C=CC(C)(C)c1c(OC)cc(O)c2c(=O)c3c(CC=C(C)C)c(O)c(O)cc3oc12 [CUDRAXANTHONE D]

IC50 [2]: 23.2 µM
SMILES: CC(C)=CCc1c(O)c(O)cc2c(=O)c3c(O)c4c(cc3oc12)OC(C)C4(C)C (configuration not stated) [CUDRAXANTHONE M]

Activity [1]: inactive | IC50 [2]: 41.6 µM
SMILES: CC(C)=CCc1c(-c2ccc(O)cc2O)oc2cc3c(c(O)c2c1=O)C=CC(C)(C)O3 [CUDRAFLAVONE B]
Activity (RAW [4]): Dose-dependent effect | Activity (RAW [5]): Active | Activity (RAW [6]): Active | Activity (RAW [7]): Active | Activity (RAW [8]): inactive | Activity (RAW [9]): Active

IC50 [2]: 24.8 µM
SMILES: CC(C)=CCc1c(O)cc2c(c1O)C(=O)C[C@@H](c1cc3c(cc1O)OC(C)(C)C=C3)O2 [CUDRAFLAVANONE A]

IC50 [2]: 44.8 µM
SMILES: CC(C)(O)CCc1c(O)cc(O)c2c1O[C@H](c1cc3c(cc1O)OC(C)(C)C=C3)CC2=O
Activity (RAW [4]): Active | Activity (RAW [10]): inactive | Activity (RAW [5]): Active | Activity (RAW [6]): Active | Activity (RAW [7]): Active | Activity (RAW [11]): Active | Activity (RAW [9]): Active

Activity [1]: inactive | IC50 [2]: 89.6 µM
SMILES: CC(C)=CCc1cc([C@@H]2CC(=O)c3c(cc(O)c(CC=C(C)C)c3O)O2)c(O)cc1O
Activity (RAW [4]): Active | Activity (RAW [5]): Active | Activity (RAW [6]): Active | Activity (RAW [7]): Active | Activity (RAW [8]): inactive | Activity (RAW [11]): Active | Activity (RAW [9]): Active

IC50 [2]: 133 µM
SMILES: C=CC(C)(C)c1c(OC)cc(O)c2c(=O)c3ccc(O)c(O)c3oc12 [ISOCUDRANIAXANTHONE B]

IC50 [2]: 112 µM
SMILES: C=CC(C)(C)c1c(O)c(CC=C(C)C)c2oc3cc(O)c(O)cc3c(=O)c2c1O [MACLURAXANTHONE B]

IC50 [2]: 74.4 µM
SMILES: C=CC(C)(C)c1c(O)cc2oc3c(CC=C(C)C)c(O)c(O)cc3c(=O)c2c1O [CUDRAXANTHONE L]
